US9675592B2, “Methods and compositions for bacteria infections” (priority 2013, dated 2017)

How the values were obtained:
[1] = test system: test strain 923 pPvra-lux (USA300 MRSA); test: Primary screen, relative growth in presence of oxacillin; conditions: compound 10 μM with oxacillin 2 μg/mL, absorbance 24 h, <0.50 = dead cells = hit
[2] = test system: vraSR promoter (Pvra-lux reporter in strain 923); test: Primary screen, relative luminescence (vraSR expression); conditions: primary screen, compound 10 μM with oxacillin 2 μg/mL; <0.50 = vraSR repressed = hit

| SMILES | RG avg (relative growth) [1] | RL avg (relative luminescence) [2] |
| --- | --- | --- |
| Cc1ccc(C)c(-c2nnc(NC(=O)c3ccc4c(c3)CCCC4)o2)c1 [F2518-373] | 0.05 | −0.05 |
| O=C(Nc1nnc(-c2ccc(Cl)s2)o1)c1ccccc1Oc1ccccc1 [F1374-1149] | −0.01 | 0.28 |
| COc1cccc(-c2nnc(NC(=O)c3ccc(Cl)cc3)o2)c1 [F1374-320] | 0.04 | 0.32 |
| CC1CN(S(=O)(=O)c2ccc(C(=O)Nc3nnc(-c4ccc(F)cc4)o3)cc2)CC(C)O1 (centres unmarked) [F0559-107] | −0.05 | −0.06 |
| O=C(Nc1nnc(-c2cc(Cl)ccc2Cl)o1)c1cc(Cl)ccc1Cl [F2518-49] | −0.03 | −0.05 |
| COc1ccc(OCc2noc(CNC(=O)Nc3ccc(Cl)c(Cl)c3)n2)cc1 [F5882-3269] | −0.01 | −0.02 |
| CCC1CCCCN1S(=O)(=O)c1ccc(C(=O)Nc2nnc(Cc3ccc(OC)cc3)o2)cc1 (centres unmarked) [F2368-619] | −0.03 | 0.01 |
| O=C(Nc1nnc(-c2ccncc2)o1)c1ccc(Oc2ccccc2)cc1 [F0608-1161] | 0.00 | −0.07 |
| O=C(Nc1nnc(-c2ccc(Cl)s2)o1)c1cc(-c2ccccc2)nc2ccccc12 [F1374-1094] | 0.03 | 0.52 |
| C=CCN(CC=C)S(=O)(=O)c1ccc(C(=O)Nc2nnc(-c3ccc(OC)cc3)o2)cc1 [F0559-189] | −0.05 | −0.08 |
| COc1cccc2cc(C(=O)Nc3nnc(-c4cc(Cl)sc4Cl)o3)oc12 [F1374-2680] | 0.00 | 0.42 |
| O=C(Nc1nnc(-c2ccccc2Cl)o1)c1ccc(Cl)s1 [F1374-36] | 0.04 | 0.35 |
| O=C(Nc1nnc(-c2ccc3c(c2)OCCO3)o1)c1ccc(C(=O)c2ccccc2)cc1 [F0608-19] | −0.02 | −0.12 |
| O=C(Nc1nnc(-c2ccc(F)cc2)o1)c1nc2ccccc2s1 [F1374-138] | 0.00 | 0.40 |
| COc1cc(-c2nnc(NC(=O)c3cccc(Cl)c3)o2)cc(OC)c1OC [F2517-7] | −0.03 | −0.11 |
| O=C(Nc1nnc(-c2ccc(Br)cc2)o1)c1cccc(C(F)(F)F)c1 [F2518-477] | 0.01 | 0.03 |
| O=C(Nc1nnc(-c2ccc(Cl)s2)o1)c1cccc(F)c1 [F1374-1062] | 0.01 | 0.46 |
| O=C(Nc1nnc(-c2ccc(Br)s2)o1)c1ccc2ncsc2c1 [F5093-111] | −0.02 | −0.02 |
| CCOc1cccc2cc(-c3nnc(NC(=O)c4sc5ccccc5c4Cl)o3)oc12 [F2273-238] | 0.26 | 0.19 |
| COc1ccc(-c2nnc(NC(=O)c3ccc(Br)s3)o2)cc1 [F1374-455] | 0.03 | 0.33 |
| Cc1cccc(C(=O)Nc2nnc(-c3ccc(Br)cc3)o2)c1 [F2518-436] | 0.00 | −0.06 |

| SMILES | RG avg (relative growth) [1] | RL avg (relative luminescence) [2] |
| --- | --- | --- |
| Cc1ccc(C)c(-c2nnc(NC(=O)c3ccc(Br)s3)o2)c1 [F2518-329] | 0.00 | −0.11 |
| O=C(Nc1nnc(-c2ccccc2Cl)o1)c1sc2ccccc2c1Cl [F1374-43] | 0.04 | 0.35 |
| COc1ccccc1-c1nnc(NC(=O)c2cc(-c3ccccc3)nc3ccccc23)o1 [F1374-254] | 0.06 | 0.36 |
| COc1ccc(-c2nnc(NC(=O)c3cc(Cl)sc3Cl)o2)cc1OC [F2767-204] | −0.02 | −0.09 |
| O=C(Nc1nnc(-c2ccc3c(c2)OCCO3)o1)c1cc(-c2ccccc2)nc2ccccc12 [F0608-46] | −0.06 | −0.10 |
| CC(C)c1ccc(Cc2nnc(NC(=O)c3ccc4ncsc4c3)o2)cc1 [F2368-1143] | −0.01 | −0.09 |
| O=C(Nc1nnc(-c2ccc(Br)cc2)o1)c1cc(Cl)sc1Cl [F2518-504] | 0.01 | 0.00 |
| COc1cc(-c2nnc(NC(=O)c3ccc(S(=O)(=O)N4CCCc5ccccc54)cc3)o2)cc(OC)c1OC [F0559-320] | 0.24 | −0.08 |
| CSc1ccccc1-c1nnc(NC(=O)c2ccc(F)cc2)o1 [F2645-12] | 0.41 | 0.51 |
| Cc1ccccc1C(=O)Nc1nnc(-c2ccc3c(c2)CCCC3)o1 [F0608-614] | 0.08 | −0.05 |
| Cc1ccc(C)c(-c2nnc(NC(=O)c3cc(Cl)sc3Cl)o2)c1 [F2518-360] | 0.04 | 0.13 |
| C=CCN(CC=C)S(=O)(=O)c1ccc(C(=O)Nc2nnc(-c3ccccc3OC)o2)cc1 [F0559-129] | −0.08 | −0.07 |
| COc1cccc2cc(-c3nnc(NC(=O)c4cccc(F)c4)o3)oc12 [F2273-13] | −0.03 | −0.06 |
| COc1ccc(-c2nnc(NC(=O)c3cc(Cl)sc3Cl)o2)c(OC)c1 [F1374-583] | 0.00 | 0.36 |
| CCOc1cc(-c2nnc(NC(=O)C(c3ccccc3)c3ccccc3)o2)cc(OCC)c1OCC [F2517-165] | 0.31 | −0.07 |
| COc1cc(OC)cc(-c2nnc(NC(=O)c3ccc(Cl)cc3Cl)o2)c1 [F1374-651] | 0.04 | 0.38 |
| O=C(Nc1nnc(-c2ccccn2)o1)c1c(F)cccc1F [F0608-895] | 0.03 | −0.06 |
| COc1cccc(C(=O)Nc2nnc(-c3ccc(C)c(C)c3)o2)c1 [F2767-17] | 0.00 | −0.15 |
| O=C(Nc1nnc(-c2ccc3c(c2)CCCC3)o1)c1cccc(Cl)c1 [F0608-659] | −0.05 | −0.08 |
| O=C(Nc1nnc(-c2cc(Cl)sc2Cl)o1)c1ccc2ncsc2c1 [F1374-2676] | 0.01 | 0.34 |
| O=C(Nc1nnc(-c2ccc3c(c2)CCCC3)o1)c1cccc(C(F)(F)F)c1 [F0608-575] | −0.02 | −0.09 |

| SMILES | RG avg (relative growth) [1] | RL avg (relative luminescence) [2] |
| --- | --- | --- |
| Cc1ccc(-c2nnc(NC(=O)c3ccc(C(=O)c4ccccc4)cc3)o2)c(C)c1 [F2518-168] | −0.03 | −0.07 |
| COc1cccc(-c2nnc(NC(=O)c3ccc(S(=O)(=O)N4CCc5ccccc5C4)cc3)o2)c1 [F0559-171] | −0.06 | −0.11 |
| Cc1ccc(C)c(-c2nnc(NC(=O)c3cccc(Cl)c3)o2)c1 [F2518-295] | 0.01 | −0.09 |
| O=C(Nc1nnc(-c2ccc(Cl)cc2)o1)c1ccc2ncsc2c1 [F1374-836] | −0.01 | 0.31 |
| COc1cc(-c2nnc(NC(=O)c3cccc(C(F)(F)F)c3)o2)cc(OC)c1OC [F2517-37] | −0.02 | −0.06 |
| COc1ccc(-c2nnc(NC(=O)c3ccc(C(C)(C)C)cc3)o2)cc1 [F1374-495] | 0.04 | 0.37 |
| CCN(CC)S(=O)(=O)c1ccc(C(=O)Nc2nnc(-c3cc(C)ccc3C)o2)cc1 [F2518-298] | −0.02 | 0.06 |
| COc1cccc2cc(-c3nnc(NC(=O)c4ccc(S(=O)(=O)N(C)C)cc4)o3)oc12 [F2273-29] | 0.16 | 0.29 |
| Cc1ccc(-c2nnc(NC(=O)c3nc4ccccc4s3)o2)c(C)c1 [F2518-183] | 0.00 | −0.04 |
| CCOc1cc(-c2nnc(NC(=O)c3ccc4ccccc4c3)o2)cc(OCC)c1OCC [F2517-182] | 0.46 | −0.04 |
| Cc1ccc(Cc2nnc(NC(=O)c3ccc(S(=O)(=O)N(C)c4ccccc4)cc3)o2)c(C)c1 [F2368-431] | −0.02 | −0.06 |
| CCCCN(CC)S(=O)(=O)c1ccc(C(=O)Nc2nnc(-c3ccccc3Cl)o2)cc1 [F0559-36] | −0.08 | −0.16 |
| Cc1ccc(-c2nnc(NC(=O)c3ccc(F)cc3)o2)cc1C [F2767-12] | 0.02 | 0.01 |
| O=C(Nc1nnc(-c2cccs2)o1)c1cccc(C(F)(F)F)c1 [F1374-982] | 0.13 | 0.35 |
| O=C(Nc1nnc(-c2cc(Cl)ccc2Cl)o1)c1ccc2c(c1)CCCC2 [F2518-85] | 0.00 | −0.05 |
| O=C(Nc1nnc(-c2ccc(Br)cc2)o1)c1ccc2ncsc2c1 [F2518-558] | −0.02 | −0.08 |
| Cc1ccc(-c2nnc(NC(=O)c3cccc(C(F)(F)F)c3)o2)c(C)c1 [F2518-189] | 0.01 | −0.02 |
| O=C(Nc1nnc(-c2ccc(Cl)s2)o1)c1ccc(-c2ccccc2)cc1 [F1374-1060] | 0.17 | 0.46 |
| COC(=O)c1ccc(C(=O)Nc2nnc(-c3cc(C)ccc3C)o2)cc1 [F2518-355] | −0.01 | −0.04 |
